According to patent publication US20260275280A1, “DIRECTED DIFFERENTIATION PROTOCOLS TO DERIVE BONE FIDE SPINAL SENSORY INTERNEURONS” (THE REGENTS OF THE UNIVERSITY OF CALIFORNIA, priority 2022, published 2026):

Key:
Format in all cases: cell-based, mouse
CHIR-expanded EBs = experiment: Differentiation of CHIR-expanded EBs on Matrigel (IHC, RT-qPCR at day 10)
Experimental: Embryoid body (EB) differentiation: To induce differentiation, EBs were dissociated into smaller clumps by a 5-7-minute treatment with cold 0.25% Trypsin (Gibco), followed by trituration. Trypsin was neutralized with 1:1 addition of Trypsin inhibitor (Sigma-Aldrich) and cells were pelleted by centrifugation at 1000RPM. Cell pellets were resuspended in N2/B27 medium (without growth factors) and plated onto a Matrigel precoated plate. In our experience, the single cell suspension of 100-150 EBs provided enough cells to seed one 24-well plate. […] At the end of 10 days, multiple neural processes can be visualized by phase contrast microscopy and cultures were either fixed with 4% PFA for immunohistochemistry or lysed to extract RNA in RLT buffer (Qiagen). […] CHIR withdrawal), or DAPT, a pro-differentiation agent (Crawford and Roelink, 2007) (FIG. 7J). […] This strategy was successful at restoring almost all dI identities in cultures taken from EBs both at the earliest passage and at the latest passage assessed (passage 7;

mESC-derived NPCs = experiment: Expansion culture: serial passaging of RA±BMP4 patterned EBs in CHIR or DMSO
Experimental: For expansion cultures. EBs were dissociated in single cell suspension at day 6 by treating with 0.25% Trypsin, followed by trituration to break up the larger cell clumps. Cells were pelleted and passaged in N2/B27 medium containing either DMSO or 5 μM CHIR at 1:3 dilution. Media was changed at every third day during the expansion culture.
Finally, we assessed whether the mitogenic properties of Wnt signaling can be leveraged to expand the pool of mESC-derived NPCs. RA±BMP4 patterned EBs were serially passaged at 1:3 dilution […] in the presence of DMSO (control) or CHIR (FIG. 7A).
Embryonic stem cells are first directed to a day 4 neural precursor cell (NPC) state, and then Wnt signaling is continually switched on using CHIR, which starts the process of proliferation. The cells are then passaged every 6 days. with a 1:3 split. Control NPCs die almost immediately, while “expanded” cells keep dividing for as long as they have been passaged to date (three months). These NPCs can then be differentiated. Differentiation of the expanded cultures without any further signals yields dI3s and dI5s. A further pulse for two days with RA (day 3-5), produces dI4, dI5 and dI6. Pulsing them with RA+BMP4, yields dI1, dI2 and dW3.
Thus, a method of keeping dorsal progenitors (dPs) in a proliferative state for many passages (perhaps indefinitely) is provided. The proliferative state can be maintained without changing the fate potential of the dPs. mESCs are first patterned according to either the RA or RA+BMP4 protocol, up to day 6. After patterning, the dPs are then reintroduced to medium containing CHIR (Wnt agonist, that stimulates Wnt signaling). The CHIR-treated cultures can then serially expand 3-fold every 6 days (a passage), unlike control (DMSO-treated) cells, which start dying at passage 2 (FIG. 7). To date we have expanded dPs for 7-8 passages, i.e. a couple of months.

[1] = tested on: mESCs-derived NMPs / NPCs; experiment: Bulk RNA-Seq differential expression and qRT-PCR after RA or RA+BMP4 treatment
Experimental: Bulk-RNA sequencing and data processing: Total cell lysate was obtained in buffer RLT (Qiagen) at different time points from three independent differentiations (biological replicates) conducted parallelly. RNA extraction was performed using RNeasy mini kit (Qiagen) and the quality was determined using Agilent Technologies 2100 Bioanalyzer and only samples with a RIN score >8.0 were sequenced. Stranded libraries were constructed using Universal plus mRNA sequencing kit (NuGEN) and sequenced onto 2 lanes of NovaseqS1 to generate 30 million reads/sample. Obtained reads were aligned to the latest mouse reference genome (mm10) using the STAR spliced read aligner. Pearson correlation and principal component analysis (PCA) was performed to determine the similarities among the samples and replicates. Differentially expressed genes were identified using DESeq and EdgeR package on R platform. The candidate genes were selected using cutoff false discovery rate (FDR <0.05) and log fold change (>2). Differentially expressed gene lists were further subjected to Enrichr, Metascape (Zhou et al., 2019) and DAVID functional annotation tools to identify enriched gene ontology (GO) categories.
Quantitative (a) RT-PCR analysis: RNA was isolated with RNeasy Mini Kit (Qiagen, cat no. 74104), and converted to cDNA using Superscript IV First Strand Synthesis kit (Thermo Fisher Scientific). qRT-PCR was performed using SYBR Green PCR Master Mix (Applied Biosystems) on Roche 480 Lightcycler (Roche). The relative fold expression was calculated using 2-AACt method of comparing the expression of the target gene with that of the housekeeping gene glyceraldehyde 3-phosphate dehydrogenase (Gapdh). All experiments were repeated at least 2-3 times (technical replicates) from at least two independent differentiations (biological replicates), and data is represented as mean±SEM.
We took advantage of the directed differentiation protocols to investigate the unresolved mechanisms by which RA and BMP direct dI fate specification. To further validate the use of a stem cell model, we first assessed the genetic basis of the fate decisions mediated by RA signaling. During the 24 hr pulse of RA at day 3, Pax3 levels gradually increase, while T expression concomitantly declines (FIG. 12A). […] To identify the transcriptional changes occurring during this first commitment step, we performed bulk RNA-Seq at day 3 (NMP state), day 3.25 (early transcriptional response to RA) and day 4 (dP state1) (FIG. 11B).
We hypothesized that the addition of BMP4 to NPCs in dP state1, directs them to a more dorsal dP state, i.e. dP state2 (FIG. 11A). To define the transcriptional changes occurring after BMP4 addition, we performed bulk RNA-Seq at day 4 (dP state1), day 4.25 (early transcriptional response to RA+BMP4) and at day 5 (dP state2) (FIG. 4A). […] 78 genes, out of 411, were common between both time points (FIGS. 4B, 13B). Focusing on these common genes, we identified enriched functional processes using GO analyses. The GO terms included the BMP signaling pathway (FIG. 4C, Table 3), confirming that the analysis identified BMP responsive genes.

[2] = 6 hrs of RA treatment (day 3.25) vs day 3 NMP state
[3] = 24 hours of RA exposure (day 4) vs day 3

| SMILES | identity of cultures kept in CHIR by day 10 (CHIR-expanded EBs; passage 6 or 7 EBs dissociated onto Matrigel) | effect of CHIR removal on differentiation (CHIR-expanded EBs; passage 6 or 7 EBs, day 10) | EB size over three consecutive passages (mESC-derived NPCs; CHIR vs DMSO, RA and RA+BMP4 patterned EBs) | Sox2+ NPC identity after passaging (mESC-derived NPCs; CHIR-treated EBs) | serial expansion of CHIR-treated cultures every 6 days (a passage) (mESC-derived NPCs; Example 2) [fold] | increase in the number of EBs after each passage compared to DMSO-treated EBs (mESC-derived NPCs; RA- and RA+BMP4-treated EBs) [fold] | increase in the number of CHIR-treated EBs by the third passage (mESC-derived NPCs; passaged 1:3 every 7 days) | increase in the number of dI4/dI6s (Pax2+) compared to control (CHIR-expanded EBs; pulse between day 3 and 5 during differentiation of expanded EBs) | genes significantly downregulated [1, 2] [genes] | genes significantly upregulated [1, 2] [genes] | genes significantly downregulated [1, 3] [genes] | genes significantly upregulated [1, 3] [genes] | genes upregulated compared to day 4 control (no RA treatment) ([1]; 24 hr treatment of 100 nM RA) [genes] | genes whose expression levels are altered in total ([1]; day 3, day 3.25, day 4 of RA treatment) [genes] |
| --- | --- | --- | --- | --- | --- | --- | --- | --- | --- | --- | --- | --- | --- | --- |
| Cc1c[nH]c(-c2cnc(NCCNc3ccc(C#N)cn3)nc2-c2ccc(Cl)cc2Cl)n1 [CHIR, CHIR99021] | continued to be solely Sox2^+ | removal of CHIR triggers spontaneous neural differentiation | decrease in EB size | remained Sox2^+ after multiple passages | 3 | > 6 | 3- to 6 fold | – | – | – | – | – | – | – |
| CC1=C(/C=C/C(C)=C/C=C/C(C)=C/C(=O)O)C(C)(C)CCC1 [RA, retinoic acid] | – | – | – | – | – | – | – | ~ 6 fold | 19 | 138 | 590 | 389 | 911 | 979 |
